Data: patent publication US20250270216A1, “ANTI-INFECTIVE AGENTS” (UNIVERSITY OF DUNDEE, priority 2022, published 2025)

Tests used:
[1] = biological target: T1, Human lysyl tRNA Synthetase (KRS) (Homo sapiens, UniProt Q15046); experiment: In vitro inhibition of human lysyl tRNA synthetase (KRS), Biomol green phosphate detection; format: biochemical; conditions: 3.5 μM ATP, 6 μM L-Lysine, 5 h room temperature; read-out: Hs KRS pIC50 (converted)
T1 construct: His tag with PreScission site (His PP pET15b); made in house; host or cells: E. coli BL21 (DE3)
Experimental: The gene coding for Human KRS, codon optimized for expression in E. coli, was obtained from Genscript and cloned into a His PP pET15b vector using Nde1 and Xho1 restriction sites. The resulting vector was used to transform BL21 (DE3) competent cells for protein expression. A 120 ml overnight culture was set up and grown at 37° C. 200 rpm for 16 h and used the next day to inoculate 6 litres of Autoinduction+AMP medium. This culture was grown at 37° C. for 4 h then 20° C. for 20 h. The cells were harvested by centrifugation at 3,500 g for 30 min then stored at −20° C. The resulting cell pellet was 50 g. Lysis buffer (150 ml, 25 mM HEPES/500 mM NaCl/20 mM imidazole/2 mM DTT/10% glycerol pH 7.5/protease inhibitor tablets/DNAase) was added and the pellets for defrosted at room temperature for approximately 10 min. The slurry was then passed through a Cell Disrupter (Constant Systems) set at […] to lyse the cells. The sample was then centrifuged at 40,000 g for 20 min. The supernatant was then filtered using syringe filters to 0.45 μm. The supernatant was loaded onto a 5 ml HiTrap Ni HP column that had been equilibrated with BufferA (25 mM HEPES/500 mM NaCl/20 mM Imidazole/2 mM DTT/10% Glycerol pH 7.5) at 5 ml/min using an AKTA Pure system. Once loaded the column was washed with 10 column volumes buffer A. A 5% step of Buffer B (25 mM HEPES/500 mM NaCl/500 mM Imidazole/2 mM DTT/10% Glycerol pH 7.5) was then used to wash off His rich contaminating proteins. A gradient of 5-50% B was used to elute the protein. Approximately 55 mg of protein was present in the fractions containing the HsKRS protein. The sample was then passed through a 0.2 μm filter, before loading onto a XK26/60 Superdex 200 column equilibrated with Buffer C (25 mM HEPES/150 mM NaCl/2 mM DTT/10% glycerol pH 7.0) using an AKTA Pure system at 4° C. at 2 ml/min. The sample was then dialyzed into 25 mM HEPES/500 mM NaCl//2 mM DTT/10% glycerol/0.25% azide pH 7.0. The protein was concentrated to 1 mg/ml and frozen at −80° C. Approximately 23 mg of protein was produced.
Assay Method for Measurement of In Vitro Inhibition of Human lysyl tRNA Synthetase (KRS)
Potency of compounds was determined in 10 points dose-response inhibition curves. Compounds were transferred into 384-well clear bottom plates (Greiner Bio-One, 781101) using an Echo 550 acoustic dispenser (Labcyte). Using an automatic liquid dispenser, 50 μL reaction mixes were prepared by adding 25 μL of substrate mix into all wells followed by the addition of 25 μL enzyme mix into all wells (final reaction: 30 mM Tris-HCl, pH 8.0, 40 mM MgCl2, 140 mM NaCl, 30 mM KCl, 0.01% Brij-35, 1 mM DTT, 3.5 μM ATP, 6 μM L-Lysine, 200 nM […] and 0.5 U/mL Pyrophosphatase). Complete inhibition control reactions were performed in the presence of 100 μM of control compoundand the plates were incubated at room temperature for 5 h. Reactions were stopped by the addition of Biomol green (50 μL: Enzo Life Sciences) with the amount of free phosphate detected by measuring absorbance (650 nm) after 20 min further incubation (BMG Pherastar plate reader). Counter screen assays to eliminate direct inhibition of pyrophsphatase were performed using 0.5 U/mL pyrophosphatase and 3 μM pyrophosphate as substrate in the same assay buffer (30 mM Tris-HCl, pH 8.0, 40 mM MgCl2, 140 mM NaCl, 30 mM KCl, 0.01% Brij-35, 1 mM DTT) for 5 hours at room temperature. Biomol green was added and incubated for 20 min before detection as above. Samples were run in duplicate and data was processed and analysed using ActivityBase (IDBS).

C. parvum Iowa strain = experiment: Cryptosporidiosis NOD SCID gamma mouse model, fecal oocyst shedding by quantitative PCR; format: in vivo, Cryptosporidium parvum; conditions: NOD SCID gamma mice, average reduction in oocyst shedding compared to untreated vehicle
Description: The in vivo measurement of the potential efficacy of compounds of formula (I) in a cryptosporidium mouse model has been carried out following the method described in Antimicrob. Agents Ch., 2018, 62, 4, e01505-17, and which is summarised below. The cryptosporidiosis NOD SCID gamma mouse model was run as follows: Male NOD SCID gamma mice (NOD.Cg-Prkdc^scid II2rg^tm1Wjt/SzJ, Jackson Labs) were infected approximately 2 weeks post weaning with 10^5 C. parvum Iowa strain oocysts by oral gavage. Four mice were used per experimental group. This establishes a chronic, asymptomatic infection of the small intestine, cecum, and biliary tree. Fecal parasite shedding is monitored by quantitative PCR to amplify C. parvum DNA. One week after infection (which is the timing with which shedding becomes uniformly detected), compounds are dosed by oral gavage. Treatment continued for seven days total. The number of oocysts per milligram of stool was measured for each mouse on day 8 (1 day after completion of the last dose) and day 15 […] (7 days after the completion of the last dose). Average oocyst concentrations were calculated for each group of mice. Log reduction is the average reduction in oocyst shedding compared to untreated vehicle. These experiments were run in accordance with the method of C. D. Huston et al, Antimicrob. Agents Ch., 2018, 62, 4, e01505-17.

T1 sequence (Q15046 whole entry): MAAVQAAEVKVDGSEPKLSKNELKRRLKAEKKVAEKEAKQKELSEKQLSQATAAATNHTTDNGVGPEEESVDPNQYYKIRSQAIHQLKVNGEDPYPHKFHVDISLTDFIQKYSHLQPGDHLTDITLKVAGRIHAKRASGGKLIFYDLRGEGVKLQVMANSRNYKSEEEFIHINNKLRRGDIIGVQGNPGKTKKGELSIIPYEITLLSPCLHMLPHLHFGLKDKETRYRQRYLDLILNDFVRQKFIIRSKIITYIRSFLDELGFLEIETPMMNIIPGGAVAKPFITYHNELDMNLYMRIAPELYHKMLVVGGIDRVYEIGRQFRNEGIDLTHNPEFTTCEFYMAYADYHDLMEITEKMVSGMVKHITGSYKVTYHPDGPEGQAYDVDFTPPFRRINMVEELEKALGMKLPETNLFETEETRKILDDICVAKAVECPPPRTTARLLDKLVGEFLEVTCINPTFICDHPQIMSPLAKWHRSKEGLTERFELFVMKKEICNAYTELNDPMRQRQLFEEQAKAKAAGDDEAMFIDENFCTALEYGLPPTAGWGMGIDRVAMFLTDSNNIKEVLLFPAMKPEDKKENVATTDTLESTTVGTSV

IC50 [1] | SMILES | Log Reduction (day 8) (C. parvum Iowa strain; 10 mg/kg P.O. B.I.D. 7 days) | Log Reduction (day 15) (C. parvum Iowa strain; 10 mg/kg P.O. B.I.D. 7 days) | Log Reduction (day 8) (C. parvum Iowa strain; 30 mg/kg P.O. B.I.D. 7 days) | Log Reduction (day 15) (C. parvum Iowa strain; 30 mg/kg P.O. B.I.D. 7 days) | Log Reduction (day 8) (C. parvum Iowa strain; 50 mg/kg P.O. B.I.D. 7 days) | Log Reduction (day 15) (C. parvum Iowa strain; 50 mg/kg P.O. B.I.D. 7 days) | Log Reduction (day 8) (C. parvum Iowa strain; 20 mg/kg P.O. B.I.D. 7 days) | Log Reduction (day 15) (C. parvum Iowa strain; 20 mg/kg P.O. B.I.D. 7 days) | Log Reduction (day 8) (C. parvum Iowa strain; 40 mg/kg P.O. B.I.D. 7 days) | Log Reduction (day 15) (C. parvum Iowa strain; 40 mg/kg P.O. B.I.D. 7 days)
> 100 µM | Nc1nc2c(c(C(F)F)n1)C(=O)N(C[C@@H]1CCC[C@H](C(F)(F)F)C1)C2 [Compound 3, 2-amino-4-(difluoromethyl)-6-(((1R,3S)-3-(trifluoromethyl)cyclohexyl)methyl)-6,7-dihydro-5H-pyrrolo[3,4-d]pyrimidin-5-one] | 2.4 | 1.0 | 2.8 | 1.6 | – | – | – | – | – | –
> 100 µM | Nc1nc2c(c(C(F)(F)F)n1)C(=O)N(CC1CCCC3(CC3)C1)C2 (racemic) [Compound 4, 2-amino-6-(spiro[2.5]octan-5-ylmethyl)-4-(trifluoromethyl)-6,7-dihydro-5H-pyrrolo[3,4-d]pyrimidin-5-one] | 1.3 | 1.0 | – | – | 3.4 | 2.5 | – | – | – | –
20 µM | Nc1nc2c(c(C(F)(F)F)n1)C(=O)N(C[C@@H]1CCC[C@H](C(F)(F)F)C1)C2 [Compound 1, 2-amino-4-(trifluoromethyl)-6-(((1R,3S)-3-(trifluoromethyl)cyclohexyl)methyl)-6,7-dihydro-5H-pyrrolo[3,4-d]pyrimidin-5-one] | 3.0 | 1.0 | 2.9 | 2.2 | 3.4 | 3.5 | 3.1 | 0.7 | 2.6 | 2.9
20 µM | Cc1nc(N)nc2c1C(=O)N(C[C@@H]1CCC[C@H](C(F)(F)F)C1)C2 [Compound 2, 2-amino-4-methyl-6-(((1R,3S)-3-(trifluoromethyl)cyclohexyl)methyl)-6,7-dihydro-5H-pyrrolo[3,4-d]pyrimidin-5-one] | 1.8 | 0.8 | 2.7 | 2.4 | – | – | – | – | – | –
